From patent publication US6884808B2, “Heterocycle-containing carboxylic acid derivative and drug containing the same” (Eisai Co. Ltd., priority 1995, dated 2005)

Assays:
[1] = target: T1, Retinoic acid receptor: RAR (Homo sapiens, UniProt P10276); assay: Receptor binding assay by using human promyelocytic leukemia cells HL60 (nucleus-extracted fraction, 3H-all-trans retinoic acid); settings: 50% inhibition concentration of 3H-all-trans retinoic acid binding, 4° C. for 16 hours
T1 construct: using a fraction extracted from the nucleus of HL60; endogenous in cells; host or cells: HL60 cells, nucleus-extracted fraction (0.4 M KCl extract, 100,000 x g supernatant)
T1 sequence (P10276 1-462): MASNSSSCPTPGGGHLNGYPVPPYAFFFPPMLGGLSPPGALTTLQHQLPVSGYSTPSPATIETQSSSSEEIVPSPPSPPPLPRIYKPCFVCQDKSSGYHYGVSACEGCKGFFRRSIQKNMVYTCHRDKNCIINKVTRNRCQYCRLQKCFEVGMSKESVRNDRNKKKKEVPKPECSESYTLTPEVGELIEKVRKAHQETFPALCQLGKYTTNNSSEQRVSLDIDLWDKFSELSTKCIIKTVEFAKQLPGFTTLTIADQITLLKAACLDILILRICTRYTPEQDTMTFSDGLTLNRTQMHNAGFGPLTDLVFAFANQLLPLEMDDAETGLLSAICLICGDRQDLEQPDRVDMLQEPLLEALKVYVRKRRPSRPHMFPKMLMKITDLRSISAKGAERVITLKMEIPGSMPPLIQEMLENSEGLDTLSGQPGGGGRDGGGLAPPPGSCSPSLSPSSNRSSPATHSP
Description: Receptor binding assay by using human promyelocytic leukemia cells HL60
The nucleus-extracted fraction was prepared as described below.
In 15 ml of Solution A [5 mM sodium phosphate (pH 7.4), 10 mM monothioglycerol, 10% v/v glycerol, 1 mM phenylmethyl sulfonyl fluoride (PMSF), 10 μg/ml of aprotinin and 25 μg/ml of leupeptin], HL60 cells (5×10^8) were suspended. The resulting suspension was homogenized, followed by centrifugal separation to remove the supernatant. The precipitate so obtained was suspended in 15 ml of Solution B [10 mM tris-HCl (Tris-HCl) (pH 8.5), 10 mM monothioglycerol, 10% (v/v) glycerol, 1 mM PMSF, 10 μg/ml aprotinin, 25 μg/ml leupeptin and 0.4 M KC1]. After being allowed to stand at 4° C. for one hour, the resulting suspension was subjected to ultracentrifugation at 100,000 xg and 4° C. for one hour.
Receptor binding assay was carried out as follows:
The resulting mixture was allowed to stand at 4° C. for 16 hours. […] The count of the supernatant was determined by a scintillation counter.

[2] = system: HL60 cells; assay: Differentiation and induction effects on HL60 cells (CD11b positive cells, flow cytometry); format: cell-based; settings: Homo sapiens, HL-60, 120 h; concentration at which the existing ratio of CD11b positive cells becomes 33%; cultivation for 5 days; read-out: Differentiation and induction effects of HL60 cells ED1/3
Text: Differentiation and Induction Effects on HL60 Cells
It is known that human-derived promyelocytic leukemia cell strains HL60 differentiate into the corresponding granulocytic cells in the presence of all-trans retinoic acid [Breitman, T. Selonick., S. and Colling, S. Proc. Natl. Acad. Sci., 77, 2936(1980)]. In general, cells after differentiation have come to express specific differentiated antigens on their surface. When the HL60 cells are differentiated into granulocytic cells, CD11b which is a differential antigen between granulocytes and monocytes is expressed on the surface of the cells [Fontana, J A., Reppuci, A. Durham, J P. and Mirand, D. Cancer Res. 46, 2469-2473(1986)]. Effects of the invention compound on the differentiation and induction into granulocyte cells were studied by making use of the above-described phenomenon.
HL60 cells were cultured and kept in RPMI 1640 (a medium formulated by Rosewell Park Memorial Institute) to which 10% bovine fetal serum, 1 mM sodium […], 50 μM β-mercaptoethanol, 100 IU/ml of penicillin and 100 μg/ml of streptomycin had been added.
On each well of a 24-well plate, a 1 ml portion of the suspension containing HL60 in an amount of 1×10^5 […] was seeded. The invention compound was then added thereto at varied concentrations, followed by cultivation for 5 days in a 5% CO2-air incubator. After cultivation, the cells of each well were collected in a test tube, to which an FITC-labeled monoclonal antibody against Cd11b, that is, a granulocyte-monocyte specific antigen was added. The cells were then immobilized with 0.2% paraformaldehyde. The existing ratio of CD11b positive cells in the vial HL60 cell group present in each well was determined using flow cytometry [Miller, L J., Schwarting, R. and Springer, T A. J. Immunol. 137, 2891-2900(1986)]. The existing ratios of CD11b positive cells-of-compounds which will be described below were increased according to the concentration. The concentration at which the existing ratio of the positive cells becomes 33% is defined as ED1/3.

| IC50 [1] [nM] | melting point | SMILES | EC (33% CD11b positive cells) [2] [µM] |
| --- | --- | --- | --- |
| 1.6 |  | CC1(C)CCC(C)(C)c2nc(-c3ccc(-c4ccc(C(=O)O)cc4)[nH]3)cnc21 [Compound of Ex. 6, 4-[2-[5-[2-(5,6,7,8-Tetrahydro-5,5,8,8-tetramethylquinoxalyl)]pyrrolyl]]benzoic acid] | 5.6e-05 |
| 11 |  | CC1(C)CCC(C)(C)c2nc(-c3cc(-c4ccc(C(=O)O)cc4)no3)cnc21 [Compound of Ex. 23, 4-[3-[5-[2-(5,6,7,8-Tetrahydro-5,5,8,8-tetramethylquinoxalyl)]isoxazolyl]]benzoic acid] | 0.0006 |
| < 0.5 |  | CN1CCCC(C)(C)c2cc(-c3ccc(-c4ccc(C(=O)O)cc4)[nH]3)ccc21 [Compound of Ex. 85, 4-{2-{5-[7-(1,5,5-Trimethyl-2,3,4,5-tetrahydro-1H-benzazepinyl)]pyrrolyl}}benzoic acid] | 0.001 |

More lines, now with the values behind:

| SMILES | IC50 [1] [nM] | melting point | EC (33% CD11b positive cells) [2] [µM] |
| --- | --- | --- | --- |
| CC(C)c1ncc(-c2ccc(-c3ccc(C(=O)O)cc3)[nH]2)nc1C(C)C [Compound of Ex. 42, 4-[2-[5-[2-(5,6-Diisopropylpyrazinyl)]pyrrolyl]]benzoic acid] | 2 | 246 °C (dec.) | 0.00033 |
| CC1(C)CC(C)(C)c2nc(-c3ccc(-c4ccc(C(=O)O)cc4)[nH]3)cnc21 [Compound of Ex. 43, 4-[2-[5-[2-(5,5,7,7-Tetramethylcyclopenta[b]pyrazinyl)]-pyrrolyl]]benzoic acid] | 36 | 269 °C (dec.) | 0.00036 |
| CC(C)c1cc(-c2ccc(-c3ccc(C(=O)O)cc3)[nH]2)nn1C(C)(C)C [Compound of Ex. 99, 4-{2-{5-[3-(1-tert-Butyl-5-isopropylpyrazolyl)]pyrrolyl}}benzoic acid] | 3.4 |  | 4.7e-05 |
